Data taken from ChEMBL document CHEMBL1132533, “Synthesis and evaluation of hydroxyproline-derived isoprenyltransferase inhibitors” (Bioorg Med Chem Lett, 1999).

Key:
[1] = target: Protein farnesyltransferase (Bos taurus, UniProt P29702+P49355); experiment: Inhibitory concentration was evaluated against Farnesyltransferase in the farnesylation of H-ras protein; format: protein-complex assay
[2] = target: Geranylgeranyl transferase type I (Bos taurus, UniProt P29702+Q5EAD5); experiment: In vitro inhibitory activity against Geranylgeranyl transferase in the geranylgeranylation of H-ras-CAIL protein; format: protein-complex assay
[3] = In vitro inhibitory activity against Geranylgeranyl transferase in the geranylgeranylation of Rap1A protein protein in NIH 3T3 cells transformed with activated H-ras; format: cell-based, Mus musculus; details: nih3t3
[4] = target: Protein farnesyltransferase (Mus musculus, UniProt Q61239+Q8K2I1); experiment: Inhibitory concentration against Farnesyltransferase for Farnesylation of H-ras protein InNIH 3T3 cells transformed with activated H-ras; format: cell-based, NIH3T3

SMILES	IC50 [1] [nM]	IC50 [2] [nM]	IC50 [3] [nM]	IC50 [4] [nM]
CSCC[C@@H](NC(=O)[C@H]1C[C@H](Oc2ccccc2)CN1C/C=C/[C@@H](N)CS)C(=O)O	3300	11000		
COC(=O)[C@@H](CCSC)NC(=O)[C@@H]1C[C@H](Oc2ccccc2)CN1C/C=C/[C@@H](N)CS			21900	5300
COC(=O)[C@H](CCSC)NC(=O)[C@@H]1C[C@H](Oc2ccc(C(C)C)cc2)CN1C/C=C/[C@@H](N)CS			390	3000
CSCC[C@H](NC(=O)[C@@H]1C[C@H](Oc2ccc(C(F)(F)F)cc2)CN1C/C=C/[C@@H](N)CS)C(=O)O	110	110		
CSCC[C@H](NC(=O)[C@@H]1C[C@H](Oc2ccccc2)CN1CCCC[C@@H](N)CS)C(=O)O	20	3300		
CCCCc1ccc(O[C@H]2C[C@@H](C(=O)N[C@@H](CCSC)C(=O)OC)N(C/C=C/[C@@H](N)CS)C2)cc1			3100	3200
CSCC[C@H](NC(=O)[C@@H]1C[C@H](Oc2cccc3ccccc23)CN1C/C=C/C(N)CS)C(=O)O (some centres not stated)	100	200		
COC(=O)[C@H](CCSC)NC(=O)[C@@H]1C[C@@H](Oc2ccccc2)CN1C/C=C/[C@@H](N)CS			> 50000	> 50000
COC(=O)[C@H](CCSC)NC(=O)[C@@H]1C[C@H](Oc2ccccc2)CN1CC/C=C/[C@@H](N)CS			> 50000	490
CSCC[C@H](NC(=O)[C@@H]1C[C@H](Oc2cccc3c2CCCC3)CN1C/C=C/[C@@H](N)CS)C(=O)O	47	89		
CSCC[C@H](NC(=O)[C@@H]1C[C@@H](Oc2ccccc2)CN1C/C=C/[C@@H](N)CS)C(=O)O	4000	8000		
CSCC[C@H](NC(=O)[C@@H]1C[C@H](Oc2ccccc2)CN1C(=O)CCC[C@@H](N)CS)C(=O)O	2	100		
COC(=O)[C@H](CCSC)NC(=O)[C@@H]1C[C@H](Oc2ccc(-c3ccccc3)cc2)CN1C/C=C/[C@@H](N)CS			3200	3300
COc1ccc(O[C@H]2CC(C(=O)NC(CCSC)C(=O)O)N(C/C=C/[C@@H](N)CS)C2)cc1OC (single isomer, unassigned)	450	67000		

Further lines, results first:

IC50 [1] [nM]	IC50 [2] [nM]	IC50 [3] [nM]	IC50 [4] [nM]	SMILES
		> 50000	> 50000	COC(=O)[C@H](CCSC)NC(=O)[C@@H]1C[C@H](Oc2ccc(C(F)(F)F)cc2)CN1C/C=C/[C@@H](N)CS
		> 50000	350	COC(=O)[C@H](CCSC)NC(=O)[C@@H]1C[C@H](Oc2ccccc2)CN1CCCC[C@@H](N)CS
		> 50000	2000	COC(=O)[C@H](CCSC)NC(=O)[C@@H]1C[C@H](Oc2ccccc2)CN1C(=O)CCC[C@@H](N)CS
		> 25000	40	COC(=O)[C@H](CCSC)NC(=O)[C@@H]1C[C@H](Oc2ccccc2)CN1C[C@H](/C=C/[C@@H](N)CS)C(C)C
		> 50000	> 50000	COC(=O)[C@H](CCSC)NC(=O)[C@@H]1C[C@H](Oc2ccc(OC)c(OC)c2)CN1C/C=C/[C@@H](N)CS
18	11			CSCC[C@H](NC(=O)[C@@H]1C[C@H](Oc2ccccc2)CN1C(=O)[C@H](/C=C/[C@@H](N)CS)C(C)C)C(=O)O
210	170			CCCc1ccccc1O[C@H]1C[C@@H](C(=O)N[C@@H](CCSC)C(=O)O)N(C/C=C/[C@@H](N)CS)C1
		> 50000	840	COC(=O)[C@H](CCSC)NC(=O)[C@@H]1C[C@H](Oc2ccccc2)CN1C(=O)[C@H](/C=C/[C@@H](N)CS)C(C)C
20	570			CSCC[C@H](NC(=O)[C@@H]1C[C@H](Oc2ccccc2)CN1CC/C=C/[C@@H](N)CS)C(=O)O
87	180			CCCCc1ccc(O[C@H]2C[C@@H](C(=O)N[C@@H](CCSC)C(=O)O)N(C/C=C/[C@@H](N)CS)C2)cc1
		> 10000	> 10000	CCCc1ccccc1O[C@H]1C[C@H](C(=O)N[C@H](CCSC)C(=O)OC)N(C/C=C/[C@@H](N)CS)C1
		> 50000	22500	COC(=O)[C@H](CCSC)NC(=O)[C@@H]1C[C@H](Oc2cccc3ccccc23)CN1C/C=C/C(N)CS (some centres not stated)
		3100	> 10000	COC(=O)[C@H](CCSC)NC(=O)[C@@H]1C[C@H](Oc2cccc3c2CCCC3)CN1C/C=C/C(N)CS (some centres not stated)
			> 50000	COC(=O)[C@H](CCSC)NC(=O)[C@H]1C[C@H](Oc2ccccc2)CN1C/C=C/[C@@H](N)CS
35	250			CSCC[C@H](NC(=O)[C@@H]1C[C@H](Oc2ccc(-c3ccccc3)cc2)CN1C/C=C/[C@@H](N)CS)C(=O)O
26	1	> 100000	370	CSCC[C@H](NC(=O)[C@H](/C=C\[C@@H](/C=C/[C@@H](N)CS)C(C)C)Cc1ccccc1)C(=O)O
82	210			CSCC[C@H](NC(=O)[C@@H]1C[C@H](Oc2ccc(C(C)C)cc2)CN1C/C=C/[C@@H](N)CS)C(=O)O
17	150			CSCC[C@H](NC(=O)[C@@H]1C[C@H](Oc2ccccc2)CN1C[C@H](/C=C/[C@@H](N)CS)C(C)C)C(=O)O
57	53			CSCCC(NC(=O)[C@@H]1C[C@H](Oc2ccccc2)CN1C/C=C/[C@@H](N)CS)C(=O)O (single isomer, unassigned)
